Assay results published in patent US20230295157A1, “3-(1H-IMIDAZOL-2-YL)-2,3,8,8A-TETRAHYDROINDOLIZIN-5(1H)-ONE DERIVATIVES USEFUL AS FACTOR XIA INHIBITORS” (JANSSEN PHARMACEUTICA NV, priority 2020, published 2023).
Like-named read-outs stand apart in the source and are kept apart here.

Columns and labels:
Factor XIa = Factor XIa (Homo sapiens (Human), UniProt P03951); assay: Factor XIa inhibition assay (FLINT) utilizing a fluorophore-quencher pair peptide substrate; type: biochemical; conditions: 30 min preincubation, kinetic reads over 30 min, read-out: FXIa Kin Inh IC50
Factor XIa, sequence (P03951 388-625): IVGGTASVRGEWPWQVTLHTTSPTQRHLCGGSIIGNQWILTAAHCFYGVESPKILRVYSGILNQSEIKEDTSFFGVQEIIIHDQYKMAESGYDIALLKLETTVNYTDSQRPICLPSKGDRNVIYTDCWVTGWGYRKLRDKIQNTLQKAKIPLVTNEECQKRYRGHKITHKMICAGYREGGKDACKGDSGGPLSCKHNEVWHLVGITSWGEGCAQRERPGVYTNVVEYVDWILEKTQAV
Factor XIa, sequence (P03951 19-387 partner): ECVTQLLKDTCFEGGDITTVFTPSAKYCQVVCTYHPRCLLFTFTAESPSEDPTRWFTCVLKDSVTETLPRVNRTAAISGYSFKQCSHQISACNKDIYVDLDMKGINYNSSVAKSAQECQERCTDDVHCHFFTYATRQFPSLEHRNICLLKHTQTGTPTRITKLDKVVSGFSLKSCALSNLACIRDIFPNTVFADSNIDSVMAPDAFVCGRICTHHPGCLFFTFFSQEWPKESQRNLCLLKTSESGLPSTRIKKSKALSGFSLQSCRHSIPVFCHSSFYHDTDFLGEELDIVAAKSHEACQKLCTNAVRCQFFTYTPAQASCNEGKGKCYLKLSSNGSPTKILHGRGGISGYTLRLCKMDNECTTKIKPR
How it was run: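 FXIa ([…]) preincubated 30 min with compound (11-point 3-fold dilution, top 100 nM, 2% DMSO), then 15 μM quenched FXI Arg146-based peptide added; Tris pH 7.5, CaCl2, BSA, CHAPS. Fluorescence 485/520 nm read kinetically every 5 min over 30 min at RT; IC50 by 4-parameter fit.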

human plasma kallikrein = human plasma kallikrein (Homo sapiens (Human), UniProt P03952); assay: Kallikrein inhibition assay (FLINT) utilizing a quenched AMC peptide substrate; type: biochemical; conditions: 30 min preincubation, kinetic reads over 30 min, Z-Gly-Pro-Arg-AMC substrate 50 μM; read-out: Kallikrein Kin Inh IC50
human plasma kallikrein, sequence (P03952 391-638): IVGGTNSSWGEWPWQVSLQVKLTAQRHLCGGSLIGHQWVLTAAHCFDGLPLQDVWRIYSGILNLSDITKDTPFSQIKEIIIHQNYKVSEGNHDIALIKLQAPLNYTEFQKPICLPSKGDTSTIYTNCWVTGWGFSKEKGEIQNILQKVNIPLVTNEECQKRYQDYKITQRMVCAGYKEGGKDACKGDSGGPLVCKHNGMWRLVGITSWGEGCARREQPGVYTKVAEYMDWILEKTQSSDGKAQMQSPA
human plasma kallikrein, sequence (P03952 20-390 partner): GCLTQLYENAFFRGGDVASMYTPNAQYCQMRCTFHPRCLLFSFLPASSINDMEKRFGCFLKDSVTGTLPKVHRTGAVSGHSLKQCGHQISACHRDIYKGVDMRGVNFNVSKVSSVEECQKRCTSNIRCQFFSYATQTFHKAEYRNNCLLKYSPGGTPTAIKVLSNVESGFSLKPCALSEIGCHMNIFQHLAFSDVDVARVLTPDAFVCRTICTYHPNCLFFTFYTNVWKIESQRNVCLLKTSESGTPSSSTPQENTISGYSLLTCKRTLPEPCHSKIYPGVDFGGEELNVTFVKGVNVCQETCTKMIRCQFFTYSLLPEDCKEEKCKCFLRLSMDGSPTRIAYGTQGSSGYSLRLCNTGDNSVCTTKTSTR
How it was run: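 Fluorogenic Z-Gly-Pro-Arg-AMC cleavage (50 μM substrate, 2 nM kallikrein, Tris pH 7.5, CaCl2, BSA, CHAPS, 2% DMSO) read kinetically at 340/440 nm for 30 min after 30-min compound pre-incubation. Compounds in 11-point 3-fold series from 1 μM; percent inhibition fitted to four-parameter equation for IC50.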

[1] = 5Fam-KLTRAETV-K5Tamra substrate 15 μM
[2] = 5Fam-[…]-K5Tamra substrate 15 μM

Row | IC50 (Factor XIa; [1]) [nM] | IC50 (human plasma kallikrein) [nM] | IC50 (Factor XIa; [2]) [nM] | SMILES
1 | 10.2 | 38.4 |  | NC(=O)c1ccc(-c2cnc([C@H]3CC[C@@H]4CC(c5c(-n6cnnn6)ccc(Cl)c5F)=CC(=O)N43)[nH]2)cn1 (single isomer, unassigned) [Example 226]
2 | ~30.4 | 380 |  | CNC(=O)c1ccccc1-c1cnc([C@@H]2CCC3CC(c4c(-n5cnnn5)ccc(Cl)c4F)=CC(=O)N32)[nH]1 (stereo partly drawn) [Example 287, 2-(2-((3S)-7-(3-chloro-2-fluoro-6-(1H-tetrazol-1-yl)phenyl)-5-oxo-1,2,3,5,8,8a-hexahydroindolizin-3-yl)-1H-imidazol-5-yl)-N-methylbenzamide]
3 | 2.7 | 7.3 |  | O=C1C=C(c2c(-n3cc(C(F)(F)F)nn3)ccc(Cl)c2F)CC2CC[C@@H](c3ncc(-c4c[nH]c5ncncc45)[nH]3)N12 (stereo partly drawn) [Example 365, (3S)-3-(5-(7H-pyrrolo[2,3-d]pyrimidin-5-yl)-1H-imidazol-2-yl)-7-(3-chloro-2-fluoro-6-(4-(trifluoromethyl)-1H-1,2,3-triazol-1-yl)phenyl)-2,3,8,8a-tetrahydroindolizin-5(1H)-one]
4 | 0.5 | 1.9 |  | COc1cc2[nH]cc(-c3cnc([C@@H]4CC[C@@H]5CC(c6c(-n7cnnn7)ccc(Cl)c6F)=CC(=O)N54)[nH]3)c2cn1 [Example 388, (3S,8aR)-7-(3-chloro-2-fluoro-6-(1H-tetrazol-1-yl)phenyl)-3-(5-(6-methoxy-1H-pyrrolo[3,2-c]pyridin-3-yl)-1H-imidazol-2-yl)-2,3,8,8a-tetrahydroindolizin-5(1H)-one]
5 |  | 342 | 78.7 | O=C1C=C(c2c(-n3cnnn3)ccc(Cl)c2F)C[C@@H]2CC[C@@H](c3ncc(-c4cc[n+]([O-])cc4)[nH]3)N12 (relative stereo) [Example 321, 4-(2-((3S,8aS)-7-(3-Chloro-2-fluoro-6-(1H-tetrazol-1-yl)phenyl)-5-oxo-1,2,3,5,8,8a-hexahydroindolizin-3-yl)-1H-imidazol-5-yl)pyridine 1-oxide]
6 | 0.2 | 2.6 |  | Nc1ccc(-c2cnc([C@@H]3CC[C@@H]4CC(c5c(-n6cnnn6)ccc(Cl)c5F)=CC(=O)N43)[nH]2)c(Cl)n1 [Example 354, (3S,8aR)-3-[5-(6-amino-2-chloro-3-pyridyl)-1H-imidazol-2-yl]-7-[3-chloro-2-fluoro-6-(tetrazol-1-yl)phenyl]-2,3,8,8a-tetrahydro-1H-indolizin-5-one]
7 | 33.3 | 35.4 |  | CC12CC[C@@H](c3ncc(-c4ccnc(CO)c4F)[nH]3)N1C(=O)C=C(c1c(-n3cnnn3)ccc(Cl)c1F)C2 (stereo partly drawn) [Example 391, (3S)-7-(3-chloro-2-fluoro-6-(1H-tetrazol-1-yl)phenyl)-3-(5-(3-fluoro-2-(hydroxymethyl)pyridin-4-yl)-1H-imidazol-2-yl)-8a-methyl-2,3,8,8a-tetrahydroindolizin-5(1H)-one]
8 | 0.7 | 6.1 |  | O=C1C=C(c2c(-n3cnnn3)ccc(Cl)c2F)C[C@H]2CC[C@@H](c3ncc(-c4ccnc5c4OCCO5)[nH]3)N12 [Example 361, (3S,8aR)-7-[3-chloro-2-fluoro-6-(tetrazol-1-yl)phenyl]-3-[5-(2,3-dihydro-[1,4]dioxino[2,3-b]pyridin-8-yl)-1H-imidazol-2-yl]-2,3,8,8a-tetrahydro-1H-indolizin-5-one]
9 | 0.3 | 0.7 |  | O=C(Nc1ccccc1-c1cnc([C@@H]2CC[C@@H]3CC(c4c(-n5cnnn5)ccc(Cl)c4F)=CC(=O)N32)[nH]1)C1CC1 [Example 307, N-(2-(2-((3S,8aR)-7-(3-Chloro-2-fluoro-6-(1H-tetrazol-1-yl)phenyl)-5-oxo-1,2,3,5,8,8a-hexahydroindolizin-3-yl)-1H-imidazol-4-yl)phenyl)cyclopropanecarboxamide]
10 | > 100 | 793 |  | CNc1ncccc1-c1cnc([C@@H]2CC[C@H]3CC(c4c(-n5cnnn5)ccc(Cl)c4F)=CC(=O)N32)[nH]1 [Example 269, (3S,8aS)-7-[3-Chloro-2-fluoro-6-(tetrazol-1-yl)phenyl]-3-[5-[2-(methylamino)-3-pyridyl]-1H-imidazol-2-yl]-2,3,8,8a-tetrahydro-1H-indolizin-5-one]
11 |  | > 100 | 33.6 | Nc1ccccc1-c1cnc([C@@H]2CC[C@@H]3CC(c4c(-n5cnnn5)ccc(Cl)c4F)=CC(=O)N32)[nH]1 (relative stereo) [Example 310, (3S,8aR*)-3-(4-(2-Aminophenyl)-1H-imidazol-2-yl)-7-(3-chloro-2-fluoro-6-(1H-tetrazol-1-yl)phenyl)-2,3,8,8a-tetrahydroindolizin-5(1H)-one]
12 | 0.6 | 5.4 |  | CCC(=O)Nc1ccccc1-c1c[nH]c([C@@H]2CC[C@H]3CC(c4c(-n5cnnn5)ccc(Cl)c4F)=CC(=O)N32)n1 (relative stereo) [Example 296, N-(2-(24(3S,8aS*)-7-(3-Chloro-2-fluoro-6-(1H-tetrazol-1-yl)phenyl)-5-oxo-1,2,3,5,8,8a-hexahydroindolizin-3-yl)-1H-imidazol-4-yl)phenyl)propionamide]

Further lines, the compound ahead of its results:

Row | SMILES | IC50 (Factor XIa; [1]) [nM] | IC50 (human plasma kallikrein) [nM] | IC50 (Factor XIa; [2]) [nM]
13 | O=C1C=C(c2c(-n3cnnn3)ccc(Cl)c2F)CC2CC[C@@H](c3nc(-c4ccnc(OCCO)c4)c[nH]3)N12 (single isomer, unassigned) [Example 9] | 2.1 | 8.5 | 
14 | O=C1C=C(c2c(-n3cc(C(F)(F)F)nn3)ccc(Cl)c2F)C[C@H]2CC[C@@H](c3ncc(-c4ccc(CO)nc4Cl)[nH]3)N12 [Example 223, (3S,8aR)-7-(3-Chloro-2-fluoro-6-(4-(trifluoromethyl)-1H-1,2,3-triazol-1-yl)phenyl)-3-(5-(2-chloro-6-(hydroxymethyl)pyridin-3-yl)-1H-imidazol-2-yl)-2,3,8,8a-tetrahydroindolizin-5(1H)-one] | 15.9 | 138 | 
15 | [2H][C@]12CC[C@@H](c3ncc(-c4ccc(N)nc4F)[nH]3)N1C(=O)C=C(c1c(-n3cnnn3)ccc(Cl)c1F)C2 [Example 146, (3S,8aR)-3-[5-(6-amino-2-fluoro-3-pyridyl)-1H-imidazol-2-yl]-7-[3-chloro-2-fluoro-6-(tetrazol-1-yl)phenyl]-8a-deuterio-1,2,3,8-tetrahydroindolizin-5-one] | 0.5 | 7.3 | 
16 | NC(=O)c1ncc(-c2c[nH]c([C@@H]3CC[C@@H]4CC(c5c(-n6cc(C(F)(F)F)nn6)ccc(Cl)c5F)=CC(=O)N43)n2)s1 (single isomer, unassigned) [Example 210] | 9.3 | 20.7 | 
17 | O=C(O)c1ccc(-c2cnc([C@@H]3CCC4CC(c5c(-n6cc(Cl)nn6)ccc(Cl)c5F)=CC(=O)N43)[nH]2)s1 (stereo partly drawn) [Example 193, 5-(2-((3S)-7-(3-chloro-6-(4-chloro-1H-1,2,3-triazol-1-yl)-2-fluorophenyl)-5-oxo-1,2,3,5,8,8a-hexahydroindolizin-3-yl)-1H-imidazol-4-yl)thiophene-2-carboxylic acid] | 0.4 | 14.3 | 
18 | CS(=O)(=O)NC(=O)c1sc(-c2c[nH]c(C3CC[C@@H]4CC(c5c(-n6cc(C(F)(F)F)nn6)ccc(Cl)c5F)=CC(=O)N34)n2)cc1F (stereo partly drawn) [Example 192, 5-(2-((8aR)-7-(3-chloro-2-fluoro-6-(4-(trifluoromethyl)-1H-1,2,3-triazol-1-yl)phenyl)-5-oxo-1,2,3,5,8,8a-hexahydroindolizin-3-yl)-1H-imidazol-4-yl)-3-fluoro-N-(methylsulfonyl)thiophene-2-carboxamide] |  | 29.5 | 5.4
19 | O=C1C=C(c2c(OC(F)F)ccc(Cl)c2F)C[C@H]2CC[C@@H](c3nc(F)c(-c4ccnc(CO)c4F)[nH]3)N12 [Example 23, (3S,8aR)-7-(3-Chloro-6-(difluoromethoxy)-2-fluorophenyl)-3-(4-fluoro-5-(3-fluoro-2-(hydroxymethyl)pyridin-4yl)-1H-imidazol-2-yl)-2,3,8,8a-tetrahydroindolizin-5(1H)-one] | 50.1 | 265 | 
20 | O=C1C=C(c2cc(Cl)ccc2-n2cnnn2)C[C@H]2CC[C@@H](c3ncc(-c4ccc(NC56CC(C5)C6)nc4F)[nH]3)N12 [Example 83] | 17.4 | 57.5 | 
21 | [2H]c1cc(N)nc(F)c1-c1cnc([C@@H]2CC[C@@H]3CC(c4c(-n5cnnn5)ccc(Cl)c4F)=CC(=O)N32)[nH]1 [Example 150, (3S,8aR)-3-[5-(6-amino-4-deuterio-2-fluoro-3-pyridyl)-1H-imidazol-2-yl]-7-[3-chloro-2-fluoro-6-(tetrazol-1-yl)phenyl]-2,3,8,8a-tetrahydro-1H-indolizin-5-one] | 0.6 | 8.6 | 
22 | Nc1ccc(-c2cnc([C@@H]3CC[C@@H]4CC(c5c(-n6cnnn6)ccc(Cl)c5F)=CC(=O)N43)[nH]2)c(C(F)(F)F)n1 [Example 167, (3S,8aR)-3-(5-(6-amino-2-(trifluoromethyl)pyridin-3-yl)-1H-imidazol-2-yl)-7-(3-chloro-2-fluoro-6-(1H-tetrazol-1-yl)phenyl)-2,3,8,8a-tetrahydroindolizin-5(1H)-one] | 31 | 372 | 
23 | C[C@H](Oc1nccc(-c2cnc([C@@H]3CC[C@@H]4CC(c5c(-n6cnnn6)ccc(Cl)c5F)=CC(=O)N43)[nH]2)c1F)c1nnco1 (relative stereo) [Example 128, (3S*,8aR*)-3-(5-(2-((S*)-1-(1,3,4-oxadiazol-2-yl)ethoxy)-3-fluoropyridin-4-yl)-1H-imidazol-2-yl)-7-(3-chloro-2-fluoro-6-(1H-tetrazol-1-yl)phenyl)-2,3,8,8a-tetrahydroindolizin-5(1H)-one] |  | 12.8 | 6.1
